Assay results reported in ChEMBL document CHEMBL1149991, “Benzofuran based angiotensin II antagonists related to GR117289: enhancement of potency in vitro and oral activity” (Bioorg Med Chem Lett, 1993).

Target: T1, Type-1 angiotensin II receptor (Oryctolagus cuniculus) (UniProt P34976)
T1 sequence (whole entry): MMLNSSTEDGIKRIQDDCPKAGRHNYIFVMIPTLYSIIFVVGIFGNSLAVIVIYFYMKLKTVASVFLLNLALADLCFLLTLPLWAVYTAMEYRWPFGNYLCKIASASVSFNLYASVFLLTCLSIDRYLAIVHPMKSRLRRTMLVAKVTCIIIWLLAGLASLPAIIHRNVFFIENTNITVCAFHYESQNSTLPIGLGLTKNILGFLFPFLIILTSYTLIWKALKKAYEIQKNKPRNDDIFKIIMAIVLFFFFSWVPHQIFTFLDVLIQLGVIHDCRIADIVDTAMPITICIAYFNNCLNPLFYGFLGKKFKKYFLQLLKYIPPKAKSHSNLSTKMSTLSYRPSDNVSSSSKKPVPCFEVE
Test: In vitro for its antagonistic activity against angiotensin II type 1 receptor in Rabbit Aorta
Type: functional, tissue-based

Going from `CCCCc1nc(Cl)c(CC(=O)O)n1Cc1ccc2oc(-c3ccccc3-c3nn[nH]n3)c(Br)c2c1` to `CCCCc1nc(Cl)c(CNC(N)=O)n1Cc1ccc2oc(-c3ccccc3-c3nn[nH]n3)c(Br)c2c1`, the pKB falls from 9.8 to 8.8.

First: CCCCc1nc(Cl)c(C(=O)O)n1Cc1ccc2oc(-c3ccccc3-c3nn[nH]n3)c(C(C)(C)C)c2c1
Second: CCCCc1nc(Cl)c(C(=O)O)n1Cc1ccc2oc(-c3ccccc3-c3nn[nH]n3)c(C(F)(F)F)c2c1
The pKB of the first is lower: 8.3 for the first, 10 for the second.

First: CCCCc1nc(Cl)c(C(=O)N(C)C)n1Cc1ccc2oc(-c3ccccc3-c3nn[nH]n3)c(Br)c2c1
Second: CCCCc1nc(Cl)c(C(N)=O)n1Cc1ccc2oc(-c3ccccc3-c3nn[nH]n3)c(Br)c2c1
The pKB of the first is lower: 8.8 for the first, 9 for the second.

Compared with `CCCCc1nc(Cl)c(C(=O)OCC)n1Cc1ccc2oc(-c3ccccc3-c3nn[nH]n3)c(Br)c2c1`, `CCCCc1nc(Cl)c(C(=O)NC)n1Cc1ccc2oc(-c3ccccc3-c3nn[nH]n3)c(Br)c2c1` is higher in pKB: 8.3 for the first, 9.2 for the second.

First: CCCCc1nc(Cl)c(C(=O)O)n1Cc1ccc2oc(-c3ccccc3-c3nn[nH]n3)c(Cl)c2c1
Second: CCCCc1nc(Cl)c(C(=O)O)n1Cc1ccc2oc(-c3ccccc3-c3nn[nH]n3)c(OC)c2c1
The pKB of the first is higher: 10.5 for the first, 9.6 for the second.

Going from `CCCCc1nc(Cl)c(C(=O)O)n1Cc1ccc2oc(-c3ccccc3C(=O)Nc3nn[nH]n3)c(Br)c2c1` to `CCCCc1nc(Cl)c(C(=O)O)n1Cc1ccc2oc(-c3ccccc3C(N)=O)c(Br)c2c1`, the pKB falls from 8.8 to 7.2.

First: CCCCc1nc(Cl)c(C(=O)O)n1Cc1ccc2oc(-c3ccccc3NS(=O)(=O)C(F)(F)F)c(Br)c2c1
Second: CCCCc1nc(Cl)c(C(=O)O)n1Cc1ccc2oc(-c3ccccc3C#N)c(Br)c2c1
The pKB of the first is higher: 7.8 for the first, under 6 for the second.

First: CCCCc1nc(Cl)c(C(=O)O)n1Cc1ccc2oc(-c3ccccc3-c3nnn(C)n3)c(Br)c2c1
Second: CCCCc1nc(Cl)c(C(=O)O)n1Cc1ccc2oc(-c3ccccc3-c3nnnn3C)c(Br)c2c1
The pKB of the first is lower: 6.4 for the first, 7.3 for the second.

Work on `CCCCc1nc(Cl)c(C(=O)O)n1Cc1ccc2oc(-c3ccccc3C(=O)OCC)c(Br)c2c1` yielded a pKB of 7.8.
